Results published in ChEMBL document CHEMBL4483862, “Open-source discovery of chemical leads for next-generation chemoprotective antimalarials” (2018).

Tested on: Plasmodium berghei
Assay: Luciferase/luciferin-expressing antifolate-resistant parasites were used to infect a culture of HepG2 cells that were pre-incubated with compounds. Infected hepatocytes emit light due to the luciferase reaction. Assay results are presented as the percent inhibition of light emission compared to control. […]
Format: functional
Details: sporozoite; for IC90: read-out: LUCIFERASE INFECTION ASSAY - IC90

In the case of `CCC(=O)Nc1nc(C)c(-c2csc(Nc3ccc(N(C)C)cc3)n2)s1`, the IC50 (FFLUC_HILL_SLOPE 5.2, FFLUC_R_SQUARED 0.393, read-out: LUCIFERASE INFECTION ASSAY - IC50) is reported as > 8.52 µM and the IC90 is reported as > 8.52 µM.
With `Cc1ccc(S(=O)(=O)N(Cc2ccccc2Cl)c2ccc(Br)cc2C(=O)c2ccccc2)cc1` the IC50 (FFLUC_HILL_SLOPE 4.75, FFLUC_R_SQUARED 0.66, PBLUC_HILL_SLOPE 8.83, PBLUC_R_SQUARED 0.156, read-out: LUCIFERASE INFECTION ASSAY - IC50) was 5.41 µM and the IC90 was > 5.95 µM.
For `Clc1cccc(-c2cn3c(-c4ccncc4)cnc3cn2)c1`, the IC50 (FFLUC_HILL_SLOPE 4.91, FFLUC_R_SQUARED 0.112, HEPG2TOX_HILL_SLOPE 0.251, HEPG2TOX_R_SQUARED 0.199, PBLUC_HILL_SLOPE 3.54, PBLUC_R_SQUARED 0.544, read-out: LUCIFERASE INFECTION ASSAY - IC50) was 6.34 µM and the IC90 was > 10.8 µM.
`COc1cc(/C=C(/C(=O)Nc2ccc(Cl)cc2)c2nc3ccccc3s2)ccc1OC(F)F` showed an IC50 (FFLUC_HILL_SLOPE 4.93, FFLUC_R_SQUARED 0.384, HEPG2TOX_HILL_SLOPE 14.8, HEPG2TOX_R_SQUARED 0.909, PBLUC_HILL_SLOPE 5.39, PBLUC_R_SQUARED 0.576, read-out: LUCIFERASE INFECTION ASSAY - IC50) of 2.21 µM and an IC90 of 3.33 µM.
For `COCCNc1nc2cnc(-c3ccc4ccccc4c3)cc2n1C`, the IC50 (FFLUC_HILL_SLOPE 5.54, FFLUC_R_SQUARED 0.844, PBLUC_HILL_SLOPE 0.43, PBLUC_R_SQUARED 0.895, read-out: LUCIFERASE INFECTION ASSAY - IC50) was 0.13 µM and the IC90 was > 10 µM.
`Cc1ccc(-c2oc(NC(=O)c3cncc(Br)c3)c(C#N)c2-c2ccc(C)cc2)cc1` showed an IC50 (FFLUC_HILL_SLOPE 4.83, FFLUC_R_SQUARED 0.721, HEPG2TOX_HILL_SLOPE 9.42, HEPG2TOX_R_SQUARED 0.907, PBLUC_HILL_SLOPE 30.3, PBLUC_R_SQUARED 0.463, read-out: LUCIFERASE INFECTION ASSAY - IC50) of 9.13 µM and an IC90 of 9.82 µM.
For `O=C(CSc1ccccc1C(=O)N(Cc1ccco1)Cc1cccs1)NC12CC3CC(CC(C3)C1)C2`, the IC50 (FFLUC_HILL_SLOPE 5.22, FFLUC_R_SQUARED 0.381, HEPG2TOX_HILL_SLOPE 38.7, HEPG2TOX_R_SQUARED 0.813, PBLUC_HILL_SLOPE 3.47, PBLUC_R_SQUARED 0.525, read-out: LUCIFERASE INFECTION ASSAY - IC50) was 4.08 µM and the IC90 was 7.68 µM.
`COC(=O)c1cc(CSc2nnc(-c3ccc(C)cc3)c(-c3ccc(C)cc3)n2)oc1C` was tested, and the IC50 (FFLUC_HILL_SLOPE 4.52, FFLUC_R_SQUARED 0.588, read-out: LUCIFERASE INFECTION ASSAY - IC50) was > 10 µM and the IC90 was > 10 µM.
With `FC(F)(F)c1cnc(-n2cccc2/C=N/Nc2nc3ccccc3nc2C(F)(F)F)c(Cl)c1` the IC50 (FFLUC_HILL_SLOPE 4.66, FFLUC_R_SQUARED 0.46, HEPG2TOX_HILL_SLOPE 16.5, HEPG2TOX_R_SQUARED 0.459, PBLUC_HILL_SLOPE 3.99, PBLUC_R_SQUARED 0.83, read-out: LUCIFERASE INFECTION ASSAY - IC50) was 4.16 µM and the IC90 was > 6.81 µM.
For `NS(=O)(=O)c1ccc(CCNc2nc(-c3ccc(Cl)cc3)nc3sc4c(c23)CCC4)cc1`, the IC50 (FFLUC_HILL_SLOPE 5.22, FFLUC_R_SQUARED 0.196, PBLUC_HILL_SLOPE 2.11, PBLUC_R_SQUARED 0.629, read-out: LUCIFERASE INFECTION ASSAY - IC50) was 7.12 µM and the IC90 was > 10 µM.
With `COC(=O)c1ccccc1N1C(=O)C=CC1=O` the IC50 (FFLUC_HILL_SLOPE 4.6, FFLUC_R_SQUARED 0.0459, HEPG2TOX_HILL_SLOPE 7.42, HEPG2TOX_R_SQUARED 0.806, PBLUC_HILL_SLOPE 7.78, PBLUC_R_SQUARED 0.766, read-out: LUCIFERASE INFECTION ASSAY - IC50) was 4.47 µM and the IC90 was 5.93 µM.
`CNc1nc2cnc(-c3cccc(Oc4ccccc4)c3)cc2n1-c1cccc(F)c1` was tested, and the IC50 (FFLUC_HILL_SLOPE 5.28, FFLUC_R_SQUARED 0.776, PBLUC_HILL_SLOPE 4.98, PBLUC_R_SQUARED 0.188, read-out: LUCIFERASE INFECTION ASSAY - IC50) was 8.03 µM and the IC90 was > 10 µM.
Molecule `O=C(Nc1cc(S(=O)(=O)N2CCCC2)ccc1O)c1sccc1-n1cccc1` has an IC50 (FFLUC_HILL_SLOPE 4.58, FFLUC_R_SQUARED 0.706, PBLUC_HILL_SLOPE 1.57, PBLUC_R_SQUARED 0.879, read-out: LUCIFERASE INFECTION ASSAY - IC50) of 0.802 µM and an IC90 of 3.25 µM.
`Cc1onc(-c2c(Cl)cccc2Cl)c1C(=O)Nc1ccccc1SCc1noc(-c2cccs2)n1` was tested, and the IC50 (FFLUC_HILL_SLOPE 4.47, FFLUC_R_SQUARED 0.309, read-out: LUCIFERASE INFECTION ASSAY - IC50) was > 6.07 µM and the IC90 was > 6.07 µM.
`O=[N+]([O-])c1cc2c(c(Cn3c(COc4ccc(Cl)cc4Cl)nc4ccccc43)c1)OCOC2` was tested, and the IC50 (FFLUC_HILL_SLOPE 4.75, FFLUC_R_SQUARED 0.0792, PBLUC_HILL_SLOPE 3.98, PBLUC_R_SQUARED 0.767, read-out: LUCIFERASE INFECTION ASSAY - IC50) was 4.23 µM and the IC90 was 7.34 µM.
In the case of `N#C/C(=C\Nc1cc(C(F)(F)F)cc(C(F)(F)F)c1)S(=O)(=O)c1ccccc1Cl`, the IC50 (FFLUC_HILL_SLOPE 5.48, FFLUC_R_SQUARED 0.621, HEPG2TOX_HILL_SLOPE 2.18, HEPG2TOX_R_SQUARED 0.937, read-out: LUCIFERASE INFECTION ASSAY - IC50) is reported as > 7.26 µM and the IC90 is reported as > 7.26 µM.
For `CCCOc1cc2cc(C(=O)c3ccccc3O)cnc2cc1OCCC`, the IC50 (FFLUC_HILL_SLOPE 5.56, FFLUC_R_SQUARED 0.125, HEPG2TOX_HILL_SLOPE 2.18, HEPG2TOX_R_SQUARED 0.51, PBLUC_HILL_SLOPE 8.83, PBLUC_R_SQUARED 0.576, read-out: LUCIFERASE INFECTION ASSAY - IC50) was 3.73 µM and the IC90 was 4.78 µM.
In the case of `Cc1noc(C)c1NC(=O)Nc1cc(C(F)(F)F)cc(C(F)(F)F)c1`, the IC50 (FFLUC_HILL_SLOPE 4.67, FFLUC_R_SQUARED 0.129, HEPG2TOX_HILL_SLOPE 8.81, HEPG2TOX_R_SQUARED 0.655, PBLUC_HILL_SLOPE 1.82, PBLUC_R_SQUARED 0.142, read-out: LUCIFERASE INFECTION ASSAY - IC50) is reported as 4.81 µM and the IC90 is reported as > 8.99 µM.
`CC(C)(C)c1ccc(C2NCC(c3ccc(Cl)cc3Cl)c3c2[nH]c2ccccc32)cc1` (stereo not drawn) was tested, and the IC50 (FFLUC_HILL_SLOPE 4.79, FFLUC_R_SQUARED 0.608, HEPG2TOX_HILL_SLOPE 0.722, HEPG2TOX_R_SQUARED 0.602, PBLUC_HILL_SLOPE 10.9, PBLUC_R_SQUARED 0.683, read-out: LUCIFERASE INFECTION ASSAY - IC50) was 3.34 µM and the IC90 was 4.09 µM.
In the case of `COc1ccc(CCNc2nc(CN3CCCC3)nc3sc(C)c(C)c23)cc1`, the IC50 (FFLUC_HILL_SLOPE 4.5, FFLUC_R_SQUARED 0.668, PBLUC_HILL_SLOPE 16.9, PBLUC_R_SQUARED 0.0613, read-out: LUCIFERASE INFECTION ASSAY - IC50) is reported as 9.78 µM and the IC90 is reported as > 10 µM.
`Cc1cc(C(C)(C)C)cc(S(=O)(=O)Nc2ccc(C(=O)OC(C)C(=O)c3cc(C)n(-c4ccccc4)c3C)cc2)c1C` (stereo not drawn) was tested, and the IC50 (FFLUC_HILL_SLOPE 4.56, FFLUC_R_SQUARED 0.633, PBLUC_HILL_SLOPE 9.36, PBLUC_R_SQUARED 0.441, read-out: LUCIFERASE INFECTION ASSAY - IC50) was 8.93 µM and the IC90 was > 10 µM.
In the case of `CSc1sc(C#N)c2c1/C(=N/OC(=O)c1ccc(Cl)cc1)CCC2`, the IC50 (FFLUC_HILL_SLOPE 4.66, FFLUC_R_SQUARED 0.795, read-out: LUCIFERASE INFECTION ASSAY - IC50) is reported as > 8.76 µM and the IC90 is reported as > 8.76 µM.
For `O=S(=O)(Nc1ccc(OC(F)(F)F)cc1)c1ccc(S(=O)(=O)c2ncc(C(F)(F)F)cc2Cl)s1`, the IC50 (FFLUC_HILL_SLOPE 4.61, FFLUC_R_SQUARED 0.168, read-out: LUCIFERASE INFECTION ASSAY - IC50) was > 5.82 µM and the IC90 was > 5.82 µM.
In the case of `COc1ccc2c(c1)c(CC(=O)Nc1cccc(S(=O)(=O)N3CCCC3)c1)c(C)n2C(=O)c1ccc(Cl)cc1`, the IC50 (FFLUC_HILL_SLOPE 4.55, FFLUC_R_SQUARED 0.0972, read-out: LUCIFERASE INFECTION ASSAY - IC50) is reported as > 10 µM and the IC90 is reported as > 10 µM.
With `CC(C)NC(=O)c1c(NC(=O)c2ccc(C(F)(F)F)cc2)nc2ccccn12` the IC50 (FFLUC_HILL_SLOPE 4.65, FFLUC_R_SQUARED 0.42, HEPG2TOX_HILL_SLOPE 0.706, HEPG2TOX_R_SQUARED 0.931, PBLUC_HILL_SLOPE 2.98, PBLUC_R_SQUARED 0.635, read-out: LUCIFERASE INFECTION ASSAY - IC50) was 0.698 µM and the IC90 was 1.46 µM.
In the case of `Cc1cccc(NC(=O)CN2C(=O)/C(=C(/C#N)c3nc4ccccc4[nH]3)c3ccccc32)c1`, the IC50 (FFLUC_HILL_SLOPE 4.46, FFLUC_R_SQUARED 0.474, HEPG2TOX_HILL_SLOPE 6.44, HEPG2TOX_R_SQUARED 0.532, PBLUC_HILL_SLOPE 2.02, PBLUC_R_SQUARED 0.59, read-out: LUCIFERASE INFECTION ASSAY - IC50) is reported as 5.68 µM and the IC90 is reported as > 10 µM.
In the case of `Cc1cc(O)c(C(=O)/C=C/c2cn(-c3ccccc3C)nc2-c2ccccc2)c(=O)o1`, the IC50 (FFLUC_HILL_SLOPE 4.53, FFLUC_R_SQUARED 0.503, PBLUC_HILL_SLOPE 0.894, PBLUC_R_SQUARED 0.655, read-out: LUCIFERASE INFECTION ASSAY - IC50) is reported as 6.09 µM and the IC90 is reported as > 10 µM.
Molecule `Cc1c(-c2nc3ccccc3[nH]2)c(NC(=O)C(C)C)n(Cc2ccccc2)c1C` has an IC50 (FFLUC_HILL_SLOPE 4.87, FFLUC_R_SQUARED 0.116, PBLUC_HILL_SLOPE 2.35, PBLUC_R_SQUARED 0.356, read-out: LUCIFERASE INFECTION ASSAY - IC50) of 1.97 µM and an IC90 of 5.02 µM.
Work on `Cc1ccc(-c2nc(NC(=O)c3ccc4c(=O)[nH]c(=O)n(C)c4n3)sc2-c2ccc(C)cc2)cc1` yielded an IC50 (FFLUC_HILL_SLOPE 5.14, FFLUC_R_SQUARED 0.303, PBLUC_HILL_SLOPE 8.87, PBLUC_R_SQUARED 0.194, read-out: LUCIFERASE INFECTION ASSAY - IC50) of 3.57 µM and an IC90 of 4.58 µM.
